Measurements published in patent publication US20100151104A1, “Preservative System For Beverages Based On Combinations Of Trans-Cinnamic Acid, Lauric Arginate, And Dimethyl Dicarbonate” (priority 2008, published 2010).

Legend:
[1] = test system: bio-indicator organisms (Zygosaccharomyce baili, Brettanomyces species, Saccharomyces cerevisiae, Paecilomyces lilacinus, Zygosaccharomyces bisporus …); test: Example 4: efficacy of DMDC alone in commercial product types and apple juice medium, 16 weeks; format: cell-based
Method: The efficacy of DMDC in a range of existing commercial product types was established in order to establish a baseline for future testing of products in development. A separate test of efficacy of DMDC alone in the test apple juice medium is used in comparison. Simply, four different products that are packaged without preservatives (aseptic package) were purchased from local markets.
The base test beverage formulation (Apple Juice Medium) was prepared as in other tests herewithin, and consisted of 4% apple juice, 68 g sucrose/L, 52 g glucose/L, 2 g fructose/L prepared in batch water that was formulated to 90 ppm hardness with calcium chloride and magnesium chloride. A pH of 3.4 was achieved through combinations of malic acid and sodium malate
Product was transferred to test vessels and vessels were inoculated with bio-indicator organisms. Immediately after inoculation, the test vessels were sealed with septum seal that allowed dosing of DMDC by Hamilton syringe. Dimethyl dicarbonate stock solution consisted of 1 ml of dimethyl dicarbonate (1.25 g) in 49 ml of 100% ethanol (25 mg/ml). […] After dosing with DMDC, the content of each test vessel was immediately mixed by vortex mixing. All testing was performed at ambient and test solutions were at ambient. […]

[2] = test system: bio-indicator organisms; mold strains M1 (Paecilomyces/Byssochalmys nieva) and M6 (Talaromyces flavus var. flavus); test: Example 7: growth/no growth in green tea beverage pH 5.5, 16 weeks; format: cell-based; settings: pH 5.5, read-out: minimum inhibitory concentration of DMDC required to preserve
Method: A single preparation of base beverage was employed to prepare each of five tests. The beverage formulation chosen mimics that of a green tea beverage composed per liter as follows: 170 mg Citrus Pectin; 500 mg honey granules 550 mg Acerola Dry Vitamin C, 1,332 mg green tea solid, 2,046 mg tea flavor; 65,590 mg granulated sucrose. The ingredients were added to RO water adjusted to 90 ppm hardness with calcium chloride and magnesium chloride. The acidity of the product was adjusted to pH 5.5 with a mixture of succinic acid and sodium succinate dibasic hexadydrate. The total concentration of succinic acid in solution was approximately 8 mM.
Each of the five tests employed the same bio-indicator organisms; Growth (+) versus no growth (−) established by visual inspection or spectrophotometrically. The organisms and the key (code) employed in FIGS. 6a-6e are as follows: Spores, M1 Paecilomyces/Byssochalmys nieva, Pespi isolate D16; C-7UP, Brettanomyces species, Pepsi Isolate; Spores, M6, Talaromyces flavus var. flavus ATCC 10512; Brettanomyces species, Pepsi isolate H202; Acetobacter species, Pepsi isolate “Atlanta”; an ascospore preparation of Saccharomyces cerevisiae strain 99(Spore) and Y3, Zygosaccharomyce baili, Pepsi isolate 906;. Samples were incubated for period of 16 weeks at 25° C. in vessels protective against evaporation. The results are depicted in FIGS. 6a-6e.

[3] = test system: bio-indicator organisms (Zygosaccharomyce baili, Brettanomyces species, Saccharomyces cerevisiae, Paecilomyces lilacinus, Zygosaccharomyces bisporus …); settings: FIG. 2a; absence of cinnamic acid; pH 3.4; 16 weeks
Excerpt: A single preparation of base beverage was employed to prepare each of five tests and consisted of 4% apple juice, 68 g sucrose/L, 52 g glucose/L, 2 g fructose/L prepared in batch water that was formulated to 90 ppm hardness with calcium chloride and magnesium chloride. A pH of 3.4 was achieved through combinations of malic acid and sodium malate for all preparations regardless of the presence or absence of lauric arginate or cinnamic acid. The total combined quantity of sodium malate and malic acid was near constant, but the ratio of malic acid and malate varied slightly given the presence or absence of lauric arginate or cinnamic acid. […] Where required, lauric arginate or cinnamic acid was supplemented from separately prepared stock solutions. Dimethyl dicarbonate was delivered by means of hypodermic needle (Hamilton syringe) through septum that sealed the test vessel against loss of moisture. Dimethyl dicarbonate stock solution consisted of 1 ml of dimethyl dicarbonate (1.25 g) in 49 ml of 100% ethanol (25 mg/ml).
Each of the five tests employed the same bio-indicator organisms; Growth (+) versus no growth (−) established by visual inspection or spectrophotometrically. […]

[4] = test system: vegetative forms of yeast, mold, and bacteria; settings: reported by the manufacturer of DMDC; cited from earlier work
[5] = Example 8: growth/no growth in energy beverage pH 2.85, 16 weeks; format: cell-based; settings: pH 2.9, read-out: minimum inhibitory concentration of DMDC required to preserve
Method: A single preparation of base beverage was employed to prepare each of five tests. The beverage formulation chosen mimics that of a Energy beverage and is composed per liter as follows: 209 mg Rebaudioside A (REB A), 248 mg Potassium Citrate 248 mg Flavor-vitamin mixture, 248 mg calcium lactate, 298 mg Xanthan gum, 668 mg citric acid 995 mg color, 995 mg Pomegranate flavor, 24900 mg erythritol. The ingredients were added to RO water adjusted to 90 ppm hardness with calcium chloride and magnesium chloride. The acidity of the product was adjusted to pH 2.85 with a mixture of citric acid and sodium citrate.
Each of the five tests employed the same bio-indicator organisms; Growth (+) versus no growth (−) established by visual inspection or spectrophotometrically. The organisms and the key (code) employed in FIGS. 7a-7e are as follows: Spores, M1 Paecilomyces/Byssochalmys nieva, Pespi isolate D16; C-8UP, Brettanomyces species, Pepsi Isolate; M6, Talaromyces flavus var. flavus ATCC 10512; Brettanomyces species, Pepsi isolate H2O2; Spores, M12 Penicillium camebertii (Pepsi isolate D1)”; an ascospore preparation of Saccharomyces cerevisiae strain 99(Spore) and Y3, Zygosaccharomyce baili Pepsi isolate 906;. Samples were incubated for period of 16 weeks at 25° C. in vessels protective against evaporation. The results are depicted in FIGS. 7a-7e.

[6] = test system: bio-indicator organisms; mold strains M1 (Paecilomyces/Byssochalmys nieva) and M6 (Talaromyces flavus var. flavus); test: Example 6: growth/no growth in enhanced water product pH 4.5, 16 weeks; format: cell-based; settings: FIG. 5a; enhanced water pH 4.5; DMDC singular antimicrobial agent
Method: A single preparation of base beverage was employed to prepare each of five tests. The beverage formulation chosen mimics that of an enhanced water product and is composed per liter as follows 37.2 mg Acesulfame K+; 100mg Vitamin E acetate, 54.1 mg Vitamin B mix, 331 mg sucralose 748 mg grape flavor, 3236 mg of liquid sucrose, 26.5 mg antifoam, 20 mg polysorbate. The ingredients were added to RO water adjusted to 90 ppm hardness with calcium chloride and magnesium chloride. The acidity of the product was adjusted to pH 4.5 with a mixture of succinic acid and Sodium succinate dibasic hexadydrate. The total concentration of succinic acid in solution was approximately 8 mM.
Each of the five tests employed the same bio-indicator organisms; Growth (+) versus no growth (−) established by visual inspection or spectrophotometrically. The organisms and the key (code) employed in FIGS. 5a-5e are as follows: Spores, M1 Paecilomyces/Byssochalmys nieva, Pespi isolate D16; C-7UP, Brettanomyces species, Pepsi Isolate; Spores, M6, Talaromyces flavus var. flavus ATCC 10512; Brettanomyces species, Pepsi isolate H202; Acetobacter species, Pepsi isolate “Atlanta”; an ascospore preparation of Saccharomyces cerevisiae strain 99(Spore) and Y3, Zygosaccharomyce baili, Pepsi isolate 906;. Samples were incubated for period of 16 weeks at 25° C. in vessels protective against evaporation. […]

[7] = test system: mold spores (Byssochlamyus nieva and Paecilomyces variotti); test: Germination of bio-indicator mold spores with ascorbic acid and potassium sorbate; format: cell-based
Excerpt: Ascorbic acid may be incorporated as part of the microbiological chemical preservation system. Ascorbic acid is not generally considered an antimicrobial. Instead, ascorbic acid is understood to “preserve” food ingredients against oxidation. In this respect, ascorbic acid is understood to be “anti-oxidant” preservative.

## COC(=O)OC(=O)OC [DMDC, dimethyl dicarbonate]
[1]; commercial tea beverage (pH 3.3) with honey, DMDC 2.61 mM (350 ppm)
  stability against spoilage: unstable against spoilage
[1]; green tea formulation containing lemon flavor, DMDC alone
  DMDC concentration that stabilized the formulation: 0.75 mM
[2]
  MIC: > 225 µg/mL
[3]
  DMDC required to inhibit the growth of all bio-indicator organisms: 0.95 mM
[4]
  concentration required to stabilize beverage for 16 weeks: at least 250 mg/liter
[5]
  MIC: < 125 µg/mL
[6]
  concentration of DMDC tolerated by M1 and M6: ≥ 200 ppm

## C/C=C/C=C/C(=O)[O-].[K+] [Potassium sorbate, Potassium Sorbate, reference compound]
[7]; Potassium sorbate alone at concentrations below 200 ppm
  prevention of spore germination: unable to prevent spore germination

## O=C1O[C@H]([C@@H](O)CO)C(O)=C1O [ascorbic acid]
[7]; ascorbic acid alone at 400 ppm
  effect on spore germination: able to retard germination
